Where two headings read alike, the source gives them in different places.
Experiments:
[1] = system: HBV; conditions: to the end of the second year of a two year study; cited from earlier work
[2] = system: WT HBV produced by the 2.2.15 cells; test: PMEA inhibition of HBV DNA production in 2.2.15 stable HBV-producer cells; type: cell-based; conditions: Hepatitis B virus, 168 h, HBV DNA in media on day 7, read-out: IC50 PMEA (95%Cl)
Protocol: (§1) The human hepatobtastoma cell line (Hep-G2-2.2.15) which constitutively produces infectious HBV was seeded into 96 well microtiter plates at a density of 5 x 10^3 cells per well. These cells were treated with a combination of lamivudine and PMEA on triplicate plates. Culture media containing drugs was replenished every other day for 9 days, at which time supernatants were collected and analyzed for HBV content. The lamivudine/PMEA combination was tested twice in triplicate in matrix fashion. […] Data were normalised to values obtained with non-drug treated cells, and expressed as a percent of control for analysis. […] Briefly, HBV detection was performed by "capturing" virus from supernatants on Anti-HBsAg coated plates, washing, denaturing to release HBV DNA, performing PCR with biotinylated primers, streptavidin capture of biotinylated PCR products with concomitant probe hybridization, addition of substrate, and reading optical densities of the colorimetric reaction. Dilutions of a standardized HBV-containing supernatant were included on every plate, and HBV DNA concentrations of test wells were calculated from this HBV standard curve. The useful range of detection is at least .045 to 45 fg of HBV DNA, where 30 copies of the genome can be reliably detected. […]

[3] = system: WT HBV; test: PMEA inhibition of HBV DNA production, HepG2 cells transiently transfected with HBV genome plasmid; type: cell-based; conditions: Hepatitis B virus, 168 h, WT construct, day 7, read-out: IC50 PMEA (95%Cl)
Protocol: as §1

[4] = system: HBV L528M/ M552V; test: as above; type: cell-based, hepatitis B virus
Protocol: (§2) The human hepatobtastoma cell line (Hep-G2-2.2.15) which constitutively produces infectious HBV was seeded into 96 well microtiter plates at a density of 5 x 10^3 cells per well. These cells were treated with a combination of lamivudine and PMEA on triplicate plates. Culture media containing drugs was replenished every other day for 9 days, at which time supernatants were collected and analyzed for HBV content. The lamivudine/PMEA combination was tested twice in triplicate in matrix fashion. Experiment 1 utilised a lamivudine range of 100 nM to 0.14 nM (3-fold dilutions in columns), and PMEA, 9-[(R)-2-(phosphonomethoxy)ethyl]adenine (adefovir), at concentrations of 1 µM to 10 nM (3.16 fold dilutions in rows). Experiment 2 was performed with dilutions of Lamivudine ranging from 100nM to .045 nM (in 3-fold dilutions in columns), and a PMEA range of 5 µM to 0.16 nM (3.16 fold dilutions in rows). Both drugs were diluted in a separate 96 well microtiter plate, and subsequently transferred onto plates containing the cell monolayers. Cells are grown in 150 µl RPMI 1640 supplemented with 2 mM L-Glutamine and 10% fetal bovine serum. Prior to transfer of drug, 120 µl of media was removed from the cells, leaving 30 µl on the monolayers to prevent drying. 90 µl of fresh media without drug was added, followed by the addition of 30 µl of 5X drug dilutions. Lamivudine and PMEA were each tested on their respective plates individually at the same concentrations. Data were normalised to values obtained with non-drug treated cells, and expressed as a percent of control for analysis. The method used for detection of HBV has been previously described (Jansen RW, Johnson LC, Averett, DR. High-Capacity in vitro assessment of anti-hepatitis B virus compound selectivity by a virion-specific polymerase chain reaction assay. Antimicrob Agents Chem 1993; 37 (3): 441-447.). Briefly, HBV detection was performed by "capturing" virus from supernatants on Anti-HBsAg coated plates, washing, denaturing to release HBV DNA, performing PCR with biotinylated primers, streptavidin capture of biotinylated PCR products with concomitant probe hybridization, addition of substrate, and reading optical densities of the colorimetric reaction. Dilutions of a standardized HBV-containing supernatant were included on every plate, and HBV DNA concentrations of test wells were calculated from this HBV standard curve. The useful range of detection is at least .045 to 45 fg of HBV DNA, where 30 copies of the genome can be reliably detected. Samples were tested in conjunction with both positive (.448 fg/ul plasmid DNA) and negative (RPMI medium supplemented with 2 mM L-Glutamine and 10% Fetal calf serum) controls. The average IC50 and standard error of the IC50s for the triplicate plates were calculated using SAS nonlinear regression to fit data to the Hill equation for each concentration response curve. When only a single determination of an IC50 for a particular dose combination could be made, the average of the standard errors from adjacent concentrations was used to estimate the standard error. Fractional inhibitory concentrations (FIC50) were calculated for each combination and plotted using the isobologram representation (Berenbaum, M.C. (1985) The Expected Effect ofa Combination of Agents: the General Solution. J. Theor. Biol. 114, 413-431). To assess statistical significance of synergy or antagonism, an unpaired t-test was used to compare each sum of paired FIC50 values with the theoretical value of 1. P values less than 0.05 were considered statistically significant. Comparison of P values between experiments must be interpreted with great care, as the experiments utilized different test concentration ranges (or ranges useable by the isobologram method). In some cases not all concentrations tested could support calculation of an IC50, since response was inhibited to a greater extent than 50 percent of control for all doses. […]

[5] = system: HBV L528M; test: as above; type: cell-based, hepatitis B virus
Protocol: as §2

[6] = system: HBV M552I; test: as above; type: cell-based, hepatitis B virus
Protocol: as §2

[7] = system: HBV M552V; test: as above; type: cell-based, hepatitis B virus
Protocol: as §2

[8] = in vitro; type: cell-based; conditions: human; HepG2 cells; read-out: cytotoxic IC50
Protocol: The IC50 for PMEA was determined against wild type (WT) and lamivudine resistant HBV transiently expressed in a cell culture system as described below. HepG2 cells were transiently transfected with plasmid containing the HBV genome that had the wild type sequence or contained the following lamivudine resistant mutations in the reverse transcriptase gene; M552I, M552V, L528M, L528MM552V. […] HepG2 cells were seeded into 96-well Costar plates at 6300 cells per well in 150 µl of HepG2 media (Dulbecco's Modified Eagle Medium (DMEM), containing 10% fetal bovine serum) and were incubated overnight at 37°C. For each transfected well, 75 ng of plasmid DNA and 0.5 µl of lipofectamine (Gibco) were incubated together for 30 minutes at room temperature in 12.5 µl of OptiMem (Gibco) prior to addition of DNA/lipofectamine mixture to cells. Each well was rinsed with 150 µl of unsupplemented DMEM. […] HBV DNA levels were quantitated from media harvested from cells on day 7 using the methods described in Jansen RW, Johnson LC, Averett, DR. […] Cytotoxicity due to drug treatment was determined using the DNA stain Bisbenzimide (H33342 3HCl 4H2O; Calbiochem Company, La Jolla CA). […] Fluorescent values per well were determined with a Millipore Cytofluor 2350 fluorescent plate reader (excitation, 355 nm; emission, 460 nm; arbitrary units). […]

[9] = system: WT HBV produced by the 2.2.15 cells; conditions: Heijtink et al. 1993, read-out: IC50 of PMEA, literature value using the same cell line; cited from earlier work
[10] = system: Human hepatitis B DNA polymerase which expresses lamivudine codons; conditions: Xiong et al. 1997, Abstract No. 1211; cited from earlier work

Structure (SMILES)	patients maintaining undetectable levels of virus [1] [%]	IC50 [2] [µM]	IC50 [3] [µM]	IC50 ([4]; Hepatitis B virus, 168 h, L528M/ M552V construct, transfected HepG2 cells, day 7, read-out: IC50 PMEA (95%Cl)) [µM]	x-fold change in IC50 ([4]; L528M/ M552V versus WT HBV)	IC50 ([5]; Hepatitis B virus, 168 h, L528M construct, transfected HepG2 cells, day 7, read-out: IC50 PMEA (95%Cl)) [µM]	x-fold change in IC50 ([5]; L528M versus WT HBV)	IC50 ([6]; Hepatitis B virus, 168 h, M552I construct, transfected HepG2 cells, day 7, read-out: IC50 PMEA (95%Cl)) [µM]	x-fold change in IC50 ([6]; M552I versus WT HBV)	IC50 ([7]; Hepatitis B virus, 168 h, M552V construct, transfected HepG2 cells, day 7, read-out: IC50 PMEA (95%Cl)) [µM]	x-fold change in IC50 ([7]; M552V versus WT HBV)	IC50 [8] [µM]	IC50 [9] [µM]	cross-resistance to PMEA [10]
Nc1ccn([C@@H]2CS[C@H](CO)O2)c(=O)n1 (relative stereo) [lamivudine, (2R,cis)-4-amino-1-(2-hydroxymethyl-1,3-oxathiolan-5-yl)-pyrimidin-2-one]	52													
Nc1ncnc2c1ncn2CCOCP(=O)(O)O [PMEA, 9-[(R)-2-(phosphonomethoxy)ethyl]adenine]		0.43	0.53	1.3	2.5	0.87	1.6	7.5	14	9.8	18	25 to 40	0.7	lack of cross-resistance

Source: EP1113802B1, “ANTIVIRAL COMBINATIONS OF […] ADEFOVIR” (priority 1998, dated 2000)
